Results reported in patent US5658883A, “Biologically active TGF-β1 peptides” (Celtrix Pharmaceuticals, Inc., priority 1995, dated 1997).
Like-named read-outs stand apart in the source and are kept apart here. One block for each molecule: values may come before it. Bridge positions count the residues as written; N and C are the ends. Ends that are not written are not given here. Peptide text beside a SMILES is read from it. I, II: the chains in the order shown.

Key:
[1] = target: TGF-β receptor; conditions: for competing against the binding of 125I-TGF-β1: at concentrations of up to 30 μM
Protocol: (§1) Rat muscle myoblasts (L6, American Type Culture Collection) were plated in 6-well culture plates and cultured in DMEM supplemented with 100 units/ml penicillin, 100 μg/ml streptomycin, 2 mM L-glutamine, 10% FBS until the cells were 70-90% confluent. Medium was aspirated from the wells; and 1 ml of ice cold 20 mM glycine, 135 mM NaCl, pH 3.0 was added to each well for 2 min. The buffer was aspirated and each well was rinsed 2 times with 1 ml of DMEM, 25 mM Hepes, pH 7.4, 0.1% BSA. […] Radiolabeled TGF-β samples (500 μl ) either without unlabeled TGF-β or with excess unlabeled TGF-β (20-25 nM) were prepared and added to other wells. After 1 hr incubation at room temperature, each well was rinsed 2 times with 1 ml of Hank's balanced saline solution, 0.1% BSA. To each well, 500 μl of 1% Triton X-100, 10% glycerol, 20 mM Hepes, pH 7.4, 0.01% BSA was added and incubated at 37° C. with rotation for 30 min to lyse the cells. Samples were transferred into gamma-counting vials and counted for 1 min each.

[2] = target: TGF-β receptor
Protocol: as §1

[3] = tested on: Mink lung epithelial cells (Mv1Lu CCL64); assay: Mink lung epithelial cell proliferation inhibition assay; assay type: cell-based; conditions: for ED50 (half-maximal inhibition of cell proliferation): 4 days, acid phosphatase readout
Protocol: TGF-β is known to inhibit proliferation of mink lung epithelial cells. The mink lung epithelial cell assay was thus used to test the ability of the peptides to mimic the biological activity of TGF-β. Mink lung epithelial cells (ATCC, Rockville, Md., Mv1Lu CCL64) were plated at 0.5-1.0×10^6 cells/plate in 100 mm culture plates and grown in Eagle's minimal essential medium (MEM) supplemented with 50 units/ml penicillin, 50 μg/ml streptomycin, nonessential amino acids, L-glutamine, and 10% fetal bovine serum (FBS). Cells were passaged while the cell density was subconfluent. Cells were detached with trypsin, collected by centrifugation at 800×g for 2 min, and resuspended in the culture medium at 20,000 cells/ml. The cells were plated in 96-well microtiter plates at 1000 cells (50 μl)/well. Peptides TGF-β116-31, TGF-β116-47, TGF-β216-31, TGF-β216-47 in monomeric and dimeric forms were lyophilized in the presence of sterile bovine serum albumin (BSA) carrier. Samples (50 μl) of the peptides were dissolved in the cell culture medium and added to the wells in triplicate. Recombinant human TGF-β2 was used as the standard. The plates were incubated under a 5% CO2 /95% (V/V) air atmosphere at 37° C. for 4 days. The number of cells/well in this assay is proportional to the activity of the constitutively expressed enzyme, acid phosphatase. To measure acid phosphatase activity, the wells were rinsed with phosphate-buffered saline (PBS), filled with 100 μl of 0.1M sodium acetate, pH 5.5/0.1% Triton X-100/100 mM p-nitrophenyl phosphate, and the plates were incubated at 37° C. for 2 hr. Ten μl of 1.0N NaOH was added to each well, and after 20 min at room temperature, the absorbance at 405 nm was measured.

[4] = tested on: murine thymocytes; assay: Inhibition of murine thymocyte proliferation (3H-thymidine incorporation); assay type: cell-based, C3H/HeJ mice
Protocol: In order to determine the effect of the peptides on proliferation of cell types other than mink lung epithelial cells, murine thymocytes were exposed to the peptides. Proliferation was measured by determining the amount of ^3 H-thymidine incorporated into the thymocyte DNA in response to the peptides. The cell culture assay was performed as described by Ellingsworth et al., Cell. Immunol., 114:41-54 (1988). Single-cell suspensions of thymocytes were prepared from 4 to 8 week old C3H/HeJ mice and the cells were suspended in Eagle's MEM supplemented with 5% fetal calf serum (FCS), 100 units/ml penicillin, 100 μg/ml streptomycin, 2 mM L-glutamine and 50 μM β-mercaptoethanol to 6.66×10^6 cells/ml. The thymocytes were plated into 96-well microtiter plates at 10^6 cells/well (150 μl). The cells were activated with 1.0 μg/ml of phytohemagglutinin and 8 units/ml of interleukin-1 (IL-1) (Boehringer Mannheim, Indianapolis, Ind.). […] The cells were incubated at 37° C. for 72 hr in a humidified incubator in 5% CO2 -95% air atmosphere. The cells were pulsed with 0.5 μCi/well of ^3 H-thymidine 24 hours prior to cell harvest. The thymocytes were harvested onto glass fiber filters and dried. The amount of ^3 H-thymidine incorporation was determined by liquid scintillation counting method.

[5] = tested on: tumor cell proliferation; conditions: in vitro assays, generally observed; cited from earlier work
[6] = 25 pM 125I-TGF-β2, L6 cells, 1 hr room temperature
[7] = PHA and IL-1 activated thymocytes, 72 hr

ED50 (competition against binding of 125I-TGF-β1) [1]: 10 to 15 µM
ED50 (competition against binding of 125I-TGF-β2) [2]: 10 to 15 µM
Molecule: CC[C@H](C)[C@H](NC(=O)[C@H](Cc1ccc(O)cc1)NC(=O)[C@H](CC(C)C)NC(=O)[C@H](CCC(N)=O)NC(=O)[C@H](CCCNC(=N)N)NC(=O)[C@@H](NC(=O)[C@@H](N)CSSC[C@H](N)C(=O)N[C@H](C(=O)N[C@@H](CCCNC(=N)N)C(=O)N[C@@H](CCC(N)=O)C(=O)N[C@@H](CC(C)C)C(=O)N[C@@H](Cc1ccc(O)cc1)C(=O)N[C@H](C(=O)N[C@@H](CC(=O)O)C(=O)N[C@@H](Cc1ccccc1)C(=O)N[C@@H](CCCNC(=N)N)C(=O)N[C@@H](CCCCN)C(=O)N[C@@H](CC(=O)O)C(=O)N[C@@H](CC(C)C)C(=O)NCC(=O)N[C@@H](Cc1c[nH]c2ccccc12)C(=O)N[C@@H](CCCCN)C(=O)O)[C@@H](C)CC)C(C)C)C(C)C)C(=O)N[C@@H](CC(=O)O)C(=O)N[C@@H](Cc1ccccc1)C(=O)N[C@@H](CCCNC(=N)N)C(=O)N[C@@H](CCCCN)C(=O)N[C@@H](CC(=O)O)C(=O)N[C@@H](CC(C)C)C(=O)NCC(=O)N[C@@H](Cc1c[nH]c2ccccc12)C(=O)N[C@@H](CCCCN)C(=O)O [TGF-β116-31 dimer] (I: H-CVRQLYIDFRKDLGWK-OH / II: H-CVRQLYIDFRKDLGWK-OH; disulfide I:1-II:1)

ED50 (competition against binding of 125I-TGF-β2) [2]: 30 µM
Molecule: CC[C@H](C)[C@H](NC(=O)[C@H](Cc1ccc(O)cc1)NC(=O)[C@H](CC(C)C)NC(=O)[C@@H]1CCCN1C(=O)[C@H](CCCNC(=N)N)NC(=O)[C@H](CC(C)C)NC(=O)[C@@H](N)CSSC[C@H](N)C(=O)N[C@@H](CC(C)C)C(=O)N[C@@H](CCCNC(=N)N)C(=O)N1CCC[C@H]1C(=O)N[C@@H](CC(C)C)C(=O)N[C@@H](Cc1ccc(O)cc1)C(=O)N[C@H](C(=O)N[C@@H](CC(=O)O)C(=O)N[C@@H](Cc1ccccc1)C(=O)N[C@@H](CCCCN)C(=O)N[C@@H](CCCNC(=N)N)C(=O)N[C@@H](CC(=O)O)C(=O)N[C@@H](CC(C)C)C(=O)NCC(=O)N[C@@H](Cc1c[nH]c2ccccc12)C(=O)N[C@@H](CCCCN)C(=O)O)[C@@H](C)CC)C(=O)N[C@@H](CC(=O)O)C(=O)N[C@@H](Cc1ccccc1)C(=O)N[C@@H](CCCCN)C(=O)N[C@@H](CCCNC(=N)N)C(=O)N[C@@H](CC(=O)O)C(=O)N[C@@H](CC(C)C)C(=O)NCC(=O)N[C@@H](Cc1c[nH]c2ccccc12)C(=O)N[C@@H](CCCCN)C(=O)O [TGF-β216-31 dimer] (I: H-CLRPLYIDFKRDLGWK-OH / II: H-CLRPLYIDFKRDLGWK-OH; disulfide I:1-II:1)

ED50 (competition against binding of 125I-TGF-β2), in words ([2]; 25 pM 125I-TGF-β2, L6 cells): inactive
Molecule: CLRPLYIDFKRDLGWK [TGF-β216-31]
ED50 / activity in words [3]: inactive
activity in thymocyte proliferation assay [4]: inactive

ED50 (competition against binding of 125I-TGF-β2) [2, 6]: 30 µM
competing against the binding of 125I-TGF-β2 ([2]; at concentrations of up to 30 μM): either inactive or weakly active
Molecule: CLRPLYIDFKRDLGWKWIHEPKGYNANFCAGA [TGF-β216-47 monomer]
ED50 / activity in words [3]: not active

ED50 (competition against binding of 125I-TGF-β1), in words ([1]; 25 pM 125I-TGF-β1, L6 cells): not active
competing against the binding of 125I-TGF-β1 [1]: either inactive or weakly active
Molecule: CVRQLYIDFRKDLGWKWIHEPKGYHANFCLGP [TGF-β116-47 monomer]
ED50 / activity in words [3]: some activity
ED50 (half-maximal inhibition of cell proliferation) [3]: 1 µM

Molecule: CVRQLYIDFRKDLGWKWIHEPKGYHANFCLGP [TGF-β116-47 trimer] (cysteine pairing not given here; also: trimer)
ED50 (half-maximal inhibition of cell proliferation) [3]: 0.0327 µM

Molecule: TGF-β
concentration at which saturation is achieved [5]: 10 ng/mL
concentration for 50% inhibition of tumor cell proliferation [5]: ~0.2 ng/mL

ED50 (competition against binding of 125I-TGF-β1) ([1]; 25 pM 125I-TGF-β1, L6 cells, 1 hr room temperature): 1e-05 to 3e-05 µM
Kd ([1]; read-out: apparent dissociation constant, estimated from competitive binding data, 125I-TGF-β1): 10 to 30 pM
Molecule: TGF-β1: full length transforming growth factor β1

Molecule: TGF-β2: full length transforming growth factor β2, used as the standard
ED50 (inhibition of 3H-thymidine incorporation) [4, 7]: approximately 4 pM

ED50 (competition against binding of 125I-TGF-β2) [2, 6]: 3 µM
Kd ([2]; read-out: apparent dissociation constant, estimated from competitive binding data, 125I-TGF-β2): ~3 µM
B1: CLRPLYIDFKRDLGWKWIHEPKGYNANFCAGA [TGF-β216-47 dimer] (peptide)
chain 1: CLRPLYIDFKRDLGWKWIHEPKGYNANFCAGA
chain 2: CLRPLYIDFKRDLGWKWIHEPKGYNANFCAGA
modifications: disulfide (positions not given here); also: disulfide-bonded homodimer, Cys pairing not given here
ED50 (half-maximal inhibition of cell proliferation) [3]: 0.004 to 0.014 µM
fold more activity than dimerized TGF-β116-47 ([3]; from ED50): 11-38 fold
ED50 (inhibition of thymocyte proliferation) [4, 7]: 0.057 µM

ED50 (competition against binding of 125I-TGF-β1), in words ([1]; 25 pM 125I-TGF-β1, L6 cells): not active
competing against the binding of 125I-TGF-β1 [1]: either inactive or weakly active
B2: CVRQLYIDFRKDLGWKWIHEPKGYHANFCLGP [TGF-β116-47 dimer] (peptide)
chain 1: CVRQLYIDFRKDLGWKWIHEPKGYHANFCLGP
chain 2: CVRQLYIDFRKDLGWKWIHEPKGYHANFCLGP
modifications: disulfide (positions not given here); also: disulfide-bonded homodimer, Cys pairing not given here
